Experimental data reported in ChEMBL document CHEMBL1201862, “PubChem BioAssay data set” (2004).
Calls of active or inactive are those of the source.

Key:
[1] = blockers of HIV-1 envelope-mediated cell-cell fusion – cherry-pick, dose response (AID 652057); type: functional, cell-based
[2] = A Cell Based Secondary Assay To Explore Cytotoxicity of Compounds that Sensitize Mycobacterium Tuberculosis to Beta-Lactam Antibiotics.; type: functional
[3] = off-target signal loss in HeLa-CEM21 co-culture – HeLa F-luc CTL cells, cherry-picked, counter-screen for HIV-1 Env fusion inhibitor project, dose response (AID 652040); type: functional, cell-based;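 note: potency for signal decrease marking cytotoxic or nonspecific inhibition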
[4] = biological target: T1, Fructose-bisphosphate aldolase (Mycobacterium tuberculosis, UniProt P9WQA3); test: Fluorescence-based biochemical high throughput dose response assay for inhibitors of the fructose-bisphosphate aldolase (FBA) of M. tuberculosis.; type: functional
T1 sequence (P9WQA3 whole entry): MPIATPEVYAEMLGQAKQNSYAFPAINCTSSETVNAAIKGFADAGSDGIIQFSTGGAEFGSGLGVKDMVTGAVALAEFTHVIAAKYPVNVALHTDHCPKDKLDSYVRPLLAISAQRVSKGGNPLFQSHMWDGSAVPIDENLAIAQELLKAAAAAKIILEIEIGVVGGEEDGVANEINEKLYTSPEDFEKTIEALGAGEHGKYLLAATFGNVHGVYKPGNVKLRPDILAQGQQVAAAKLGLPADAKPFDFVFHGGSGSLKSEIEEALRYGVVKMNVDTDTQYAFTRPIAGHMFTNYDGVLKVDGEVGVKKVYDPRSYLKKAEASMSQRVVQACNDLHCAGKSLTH

[5] = HEK-293T cell viability reduction – luminescence, B-cell screen hits, cytotoxicity control for BCR NF-kB inhibitor project, dose response (AID 489021); type: functional, cell-based;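 note: HEK-293T cells carrying an NF-kB luciferase reporter; cells exposed to compound for about 14 hours before viability readout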
[6] = cells; type: functional, cell-based
[7] = biological target: T2, Trace amine-associated receptor 1 (Homo sapiens, UniProt Q96RJ0); test: Fluorescence-based cell-based high throughput dose response assay to identify agonists of the human trace amine associated receptor 1 (TAAR1).; type: functional
T2 sequence (Q96RJ0 whole entry): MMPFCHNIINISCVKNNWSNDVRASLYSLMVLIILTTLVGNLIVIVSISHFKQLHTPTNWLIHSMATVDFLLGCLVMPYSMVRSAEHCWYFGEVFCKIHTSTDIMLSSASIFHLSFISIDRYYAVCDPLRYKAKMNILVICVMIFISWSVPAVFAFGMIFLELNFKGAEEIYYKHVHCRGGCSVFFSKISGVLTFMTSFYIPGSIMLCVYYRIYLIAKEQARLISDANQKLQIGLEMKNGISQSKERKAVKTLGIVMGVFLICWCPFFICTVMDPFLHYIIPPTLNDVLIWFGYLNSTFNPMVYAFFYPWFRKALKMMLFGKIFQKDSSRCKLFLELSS

[8] = cells; type: functional, cell-based; remark: listed apart in the source
[9] = biological target: T2, Trace amine-associated receptor 1; test: Counterscreen for agonists of the human trace amine associated receptor 1 (hTAAR1): Fluorescence-based cell-based high throughput dose response assay to identify hTAAR1 agonist that also desensitize TAAR1 receptor response.; type: functional
[10] = biological target: T3, Ubiquitin-conjugating enzyme E2 N (Homo sapiens, UniProt P61088); type: functional
T3 sequence (P61088 whole entry): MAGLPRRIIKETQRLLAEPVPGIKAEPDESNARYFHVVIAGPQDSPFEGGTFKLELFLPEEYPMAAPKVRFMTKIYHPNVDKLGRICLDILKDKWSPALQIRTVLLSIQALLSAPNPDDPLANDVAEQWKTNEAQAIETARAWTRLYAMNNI

[11] = biological target: Neurotensin receptor type 1 (Homo sapiens, UniProt P30989); type: functional;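 note: Image-based confirmatory dose-response assay measuring agonist activity at NTR1; NTR1-expressing U2OS osteosarcoma cells imaged for beta-arrestin GFP spot formation; agonist potency where compounds increase beta-arrestin recruitment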
[12] = Luminescence Cell-Based Dose Retest to Confirm Inhibitors of Cancer Stem Cells. [Related pubchem assays (depositor defined):AID2717, AID2721]; type: functional; conditions: Homo sapiens
[13] = biological target: T4, DNA repair protein RAD52 homolog (Homo sapiens, UniProt P43351); type: functional, biochemical
T4 sequence (P43351 whole entry): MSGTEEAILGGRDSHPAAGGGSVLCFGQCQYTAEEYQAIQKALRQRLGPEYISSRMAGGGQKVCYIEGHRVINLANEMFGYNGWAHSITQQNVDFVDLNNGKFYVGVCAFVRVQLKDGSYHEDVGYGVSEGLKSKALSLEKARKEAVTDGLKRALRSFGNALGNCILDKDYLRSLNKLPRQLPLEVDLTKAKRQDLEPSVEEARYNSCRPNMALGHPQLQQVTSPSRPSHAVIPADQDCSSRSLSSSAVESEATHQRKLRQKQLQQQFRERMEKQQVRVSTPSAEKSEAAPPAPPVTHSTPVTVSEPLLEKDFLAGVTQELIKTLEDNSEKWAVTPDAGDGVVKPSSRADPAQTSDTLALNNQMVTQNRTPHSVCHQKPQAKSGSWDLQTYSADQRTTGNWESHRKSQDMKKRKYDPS

[14] = biological target: T3, Ubiquitin-conjugating enzyme E2 N; type: functional; remark: listed apart in the source
[15] = biological target: T5, Bcl-2-related protein A1 (Mus musculus, UniProt Q07440); type: functional;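 note: confirmatory dose–response counterscreen on Bfl-1, used to check hits from a UBC13 polyubiquitin inhibitor campaign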
T5 sequence (Q07440 whole entry): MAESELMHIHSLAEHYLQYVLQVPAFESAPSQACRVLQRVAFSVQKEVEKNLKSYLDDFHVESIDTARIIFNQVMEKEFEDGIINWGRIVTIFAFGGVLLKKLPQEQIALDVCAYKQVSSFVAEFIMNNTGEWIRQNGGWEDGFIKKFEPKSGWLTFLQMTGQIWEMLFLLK

[16] = test system: P388/ADR; test: cells; type: functional; conditions: Mus musculus
[17] = test system: SN12K1; test: cells; type: functional; conditions: Homo sapiens
[18] = test system: P388; test: cells; type: functional; conditions: Mus musculus
[19] = cells
[20] = test system: Vero; test: cells; type: functional, cell-based; conditions: Chlorocebus sabaeus
[21] = viability of uninfected HEp-2 cells – cell-based, HTS, cytotoxicity control for RSV inhibitor project, dose response (AID 2410); type: functional; conditions: human respiratory syncytial virus
[22] = biological target: T6, DNA repair and recombination protein RAD54-like (Homo sapiens, UniProt Q92698); test: RAD54 Holliday junction migration blockers – biochemical, fluorescence, cherry-picked samples, dose series, confirmation (AID 651657); type: functional
T6 sequence (Q92698 whole entry): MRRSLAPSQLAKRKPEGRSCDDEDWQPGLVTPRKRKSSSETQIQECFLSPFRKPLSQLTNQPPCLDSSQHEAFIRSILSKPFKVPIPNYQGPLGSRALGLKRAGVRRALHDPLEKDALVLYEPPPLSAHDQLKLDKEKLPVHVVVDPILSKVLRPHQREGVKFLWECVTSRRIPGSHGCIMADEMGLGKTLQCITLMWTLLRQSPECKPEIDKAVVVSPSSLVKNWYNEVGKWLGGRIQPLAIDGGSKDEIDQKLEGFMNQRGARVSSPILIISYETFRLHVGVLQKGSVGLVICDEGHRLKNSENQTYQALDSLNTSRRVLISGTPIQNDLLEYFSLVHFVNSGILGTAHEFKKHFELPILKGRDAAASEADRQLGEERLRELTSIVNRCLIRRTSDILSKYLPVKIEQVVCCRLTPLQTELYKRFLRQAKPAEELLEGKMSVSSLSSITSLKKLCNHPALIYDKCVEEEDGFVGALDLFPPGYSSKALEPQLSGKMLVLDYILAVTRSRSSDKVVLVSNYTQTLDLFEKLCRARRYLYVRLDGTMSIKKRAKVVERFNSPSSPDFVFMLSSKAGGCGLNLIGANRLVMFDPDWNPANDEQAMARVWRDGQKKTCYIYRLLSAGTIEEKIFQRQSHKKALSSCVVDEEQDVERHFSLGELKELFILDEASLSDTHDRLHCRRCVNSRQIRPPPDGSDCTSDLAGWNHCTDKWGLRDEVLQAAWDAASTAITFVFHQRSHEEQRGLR

[23] = biological target: Major prion protein (Homo sapiens, UniProt P04156); type: functional, cell-based
[24] = test system: H9c2; test: cells; type: functional, cell-based; conditions: Rattus norvegicus, H9c2, Myocardium;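 note: confirmatory concentration-response retest of ultra-high-throughput screening hits for modulation of myocardial damage; cell death induced by hydrogen peroxide oxidative stress; compound pretreatment for 60 min then peroxide exposure for 2 h; potency is for protecting the cells against peroxide damage rather than for killing them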
[25] = cells; remark: listed apart in the source
[26] = OVCAR8 cell viability loss – plate reader, dry powder samples, PAX8 project, dose response (AID 743197); type: functional, cell-based; conditions: OVCAR-8
[27] = biological target: Paired box protein Pax-8 (Homo sapiens, UniProt Q06710); test: PAX8 transcriptional activity inhibition in RMG-I – RMG-I cells, luciferase, cherry-pick, dose response (AID 687027); type: functional, cell-based;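 note: luciferase reporter driven by Pax8 target thyroperoxidase promoter measured by SteadyGlo luminescence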
[28] = OVCAR-3 cell viability loss – plate reader, dry powder samples, PAX8 inhibitor project, dose response (AID 743044); type: functional, cell-based
[29] = IGROV1 cell killing – plate reader, dry powder samples, PAX8 inhibitor project, dose response (AID 743043); type: functional, cell-based; conditions: IGROV-1
[30] = P. falciparum Dd2 growth inhibitors, dose response, SYBR Green, cherry-picked samples (AID 1159567); type: functional, cell-based
[31] = biological target: FAD-linked sulfhydryl oxidase ALR (Homo sapiens, UniProt P55789); test: ALR-catalysed DTT oxidation blockers – biochemical, H2O2 detection, luminescence, cherry-pick, dose response (AID 493248)

CS(=O)(=O)N(Cc1ccc(Cl)cc1)c1ccc(C(=O)NCCC2=CCCCC2)cc1
AC50 [1]: 1.92 µM (active) | CC50 [2]: > 40 µM (active) | AC50 [3]: 6.69 µM (active)

CCC1OC2(C)OC(=N)C1(C#N)C(C#N)(C#N)C2c1ccccc1 (stereo not drawn)
IC50 [4]: > 1.11 µM (active)

CCOC(=O)c1nn(-c2ccccc2)c(C#N)c1NC(=O)c1nn(CC)cc1Br
IC50 [5]: > 80 µM (inactive) | CC50 [2]: > 40 µM (active)

O=C(O)C1C2C=CC(O2)C1C(=O)NCCc1cccc(Cl)c1 (stereo not drawn)
EC50 [6]: > 29.9 µM (inactive) | EC50 [7]: 0.307 µM (active) | IC50 [8]: > 29.9 µM (inactive) | IC50 [9]: 3.1 µM (active)

CCCCCc1cc(=O)oc2c(C(CCN3CCCCC3)c3ccc(OC)cc3)c(OC)cc(OC)c12 (stereo not drawn)
IC50 [10]: > 20 µM (inactive) | EC50 [11]: 15.3 µM (active) | AC50 [12]: 6.49 µM (active)

CN(C)CCCN(C(=O)c1ccc(C(=O)c2ccccc2)cc1)c1nc2cc3c(cc2s1)OCCO3
IC50 [10]: 7.1 µM (active) | AC50 [13]: 14.7 µM (active) | IC50 [14]: 3.92 µM (active) | IC50 [15]: > 20 µM (inactive)

COc1cc([C@@H]2c3cc4c(cc3[C@@H](OC3OC5CO[C@@H](c6cccs6)OC5C(O)C3O)[C@H]3COC(=O)[C@H]23)OCO4)cc(OC)c1O (stereo partly drawn)
GI50 [16]: 0.877 µM (active) | GI50 [17]: 0.00838 µM (active) | GI50 [18]: 0.00815 µM (active)

COc1ccccc1OCC(=O)Nc1nc2c(s1)CCCC2
IC50 [19]: 28.7 µM (active) | IC50 [20]: 24.3 µM (active) | CC50 [21]: 29.5 µM (active)

Cn1c(NCCN2CCCC2)nc2cc(-c3ccsc3)sc2c1=O
AC50 [22]: 55.8 µM (active)

NC(=O)c1ncn2c(=O)n(CCCl)nnc12 [MITOZOLOMIDE]
GI50 [16]: 12.3 µM (inactive) | GI50 [17]: 75.2 µM (inactive) | GI50 [18]: 13.8 µM (inactive)

Cc1ccn2cc(-c3cnoc3C)nc2c1
IC50 [4]: > 1.11 µM (active)

Cc1c2ccncc2c(C)c2c1[nH]c1ccc(OCCN(C)C)cc12
GI50 [16]: 0.0283 µM (active) | GI50 [17]: 0.148 µM (active) | GI50 [18]: 0.0153 µM (active)

COc1ccc(Nc2nnc(-c3ccc(O)cc3)c3ccccc23)cc1C(N)=O
IC50 [23]: 0.759 µM (active) | IC50 [24]: 15 µM (active) | IC50 [25]: > 138 µM (inactive)

COC1(O)c2cccc(Cl)c2C(=O)N1C1(C(N)=O)CCCCC1 (stereo not drawn)
GI50 [16]: > 100 µM (inactive) | GI50 [17]: > 100 µM (inactive) | GI50 [18]: > 100 µM (inactive)

C#CCOCCOCCOCCNc1nc(N2CCN(C(=O)[C@H](CCCCN)n3cc([C@@H](N)CC(N)=O)nn3)CC2)nc(N2CCN(C(=O)[C@H](CCCCN)n3cc([C@@H](N)CC(N)=O)nn3)CC2)n1
IC50 [10]: 17.3 µM (active) | IC50 [14]: 12.5 µM (active) | IC50 [15]: > 20 µM (inactive)

C[C@@H]1CN([C@H](C)CO)C(=O)c2c(c3ccccc3n2C)-c2ccccc2CO[C@H]1CN(C)S(=O)(=O)c1ccc(C(F)(F)F)cc1
AC50 [26]: 27 µM (active) | AC50 [27]: 4.41 µM (active) | AC50 [28]: 23.5 µM (active) | AC50 [29]: 42.5 µM (active) | AC50 [30]: 2.68 µM (active)

COc1ccc2[nH]c3c(S)ncnc3c2c1
IC50 [25]: > 138 µM (inactive)

COc1ccc(-c2cc(C(=O)NCC3CCCO3)c3cc(C(C)C)ccc3n2)cc1 (stereo not drawn)
IC50 [4]: 0.797 µM (active)

COc1ccc2[nH]c3c(=S)[nH]cnc3c2c1
IC50 [23]: 5.91 µM (active) | AC50 [31]: 0.035 µM (active)

c1ccc(CCn2nnnc2C(c2cccs2)N2CCN(Cc3ccc4c(c3)OCO4)CC2)cc1 (stereo not drawn)
EC50 [6]: > 29.9 µM (inactive) | EC50 [7]: 0.389 µM (active) | IC50 [8]: > 29.9 µM (inactive) | IC50 [9]: 2.19 µM (active)
